pIC50: −log10 of the molar value. Some results are limits rather than exact numbers.

Assay [1] has as its target T1, mouse CD38 (Mus musculus, UniProt P56528).
T1 construct: purchased Bio-Techne GmbH 4947-AC
T1 sequence (P56528 1-304): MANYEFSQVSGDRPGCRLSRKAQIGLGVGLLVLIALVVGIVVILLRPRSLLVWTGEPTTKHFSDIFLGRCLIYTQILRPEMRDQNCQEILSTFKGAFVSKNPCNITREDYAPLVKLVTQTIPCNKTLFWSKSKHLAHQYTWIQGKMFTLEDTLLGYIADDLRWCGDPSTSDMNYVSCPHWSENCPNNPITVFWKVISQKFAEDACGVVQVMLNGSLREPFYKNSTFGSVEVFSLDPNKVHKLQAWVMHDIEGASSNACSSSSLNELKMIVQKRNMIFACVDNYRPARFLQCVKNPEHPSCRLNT
The assay is described as follows: NAD+ cyclase activity assay with mouse recombinant CD38 protein (ε-NAD fluorescence). As to conditions: 0.6 nM mouse CD38, substrate ε-NAD, 30 min preincubation, fluorescence 300/410 nm. Format: biochemical. Put shortly:
(§1)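 Recombinant CD38 (0.6 nM mouse or 1.9 nM human) in 40 mM HEPES/NaOH pH 7.5, 250 mM sucrose, 0.01% Tween was preincubated with compound for 30 min at room temperature, then […] ε-NAD was added. Fluorescence (ex 300/em 410 nm) was read continuously. Slopes over the linear phase were normalised to enzyme and no-enzyme controls and fitted from 12-point, threefold dose-response curves.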

In assay [2] the target is T2, human CD38 (Homo sapiens, UniProt P28907).
T2 construct: purchased Bio-Techne GmbH AVI2404
T2 sequence (P28907 1-300): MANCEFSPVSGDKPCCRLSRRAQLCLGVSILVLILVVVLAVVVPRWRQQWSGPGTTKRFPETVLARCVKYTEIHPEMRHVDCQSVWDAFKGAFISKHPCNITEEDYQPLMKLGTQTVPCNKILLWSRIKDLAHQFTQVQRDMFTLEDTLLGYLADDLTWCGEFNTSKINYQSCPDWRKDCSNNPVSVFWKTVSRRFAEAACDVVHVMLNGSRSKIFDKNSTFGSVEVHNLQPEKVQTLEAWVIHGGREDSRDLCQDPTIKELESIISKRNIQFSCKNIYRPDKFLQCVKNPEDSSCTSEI
Put plainly: NAD+ cyclase activity assay with human recombinant CD38 protein (ε-NAD fluorescence). The assay is classed as biochemical. As to conditions: 1.9 nM human CD38, substrate ε-NAD, 30 min preincubation, fluorescence 300/410 nm. The procedure, abridged:
as §1

The pIC50 is −log10 of the IC50, conventionally taken in molar units. Turning to `COCCO[C@H]1CC[C@H](NC(=O)c2cc(Cl)c3c(c2)-c2cncn2CCO3)CC1` [Compound 94A, 8-Chloro-N-((1r,4r)-4-(2-methoxyethoxy)cyclohexyl)-5,6-dihydrobenzo[f]imidazo[1,5-d][1,4]oxazepine-10-carboxamide], the negative logarithm of the IC50 (pIC50) was over 9.00 in assay [1] and over 7.52 in assay [2].

`COCCO[C@H]1CC[C@H](NC(=O)c2cc3c(c(F)c2F)OCCn2cncc2-3)CC1` [Compound 95A, 8,9-Difluoro-N-((1r,4r)-4-(2-methoxyethoxy)cyclohexyl)-5,6-dihydrobenzo[f]imidazo[1,5-d][1,4]oxazepine-10-carboxamide]: the pIC50 in assay [1] was 8.00 to 9.00; in assay [2], over 7.52.

Regarding `O=C(NC1CCCC(F)(F)C1)c1ccc2c(c1)-c1cncn1CCO2` (centres unmarked) [Compound 96A, N-(3,3-Difluorocyclohexyl)-5,6-dihydrobenzo[f]imidazo[1,5-d][1,4]oxazepine-10-carboxamide], the negative-log IC50 (pIC50) in assay [1] is 8.00 to 9.00; in assay [2], over 7.52.

Turning to `O=C(Nc1cnc2c(c1)OCCO2)c1cc(F)c2c(c1)-c1cncn1CCO2` [Compound 97A, N-(2,3-Dihydro-[1,4]dioxino[2,3-b]pyridin-7-yl)-8-fluoro-5,6-dihydrobenzo[f]imidazo[1,5-d][1,4]oxazepine-10-carboxamide], the negative-log IC50 (pIC50) in assay [1] was over 9.00; in assay [2], over 7.52.

Turning to `CN1CCOc2cc(NC(=O)c3ccc4c(c3)-c3cncn3CCO4)cnc21` [Compound 98A, N-(4-Methyl-3,4-dihydro-2H-pyrido[3,2-b][1,4]oxazin-7-yl)-5,6-dihydrobenzo[f]imidazo[1,5-d][1,4]oxazepine-10-carboxamide], the values for the pIC50 in assay [1] and in assay [2] were 8.00 to 9.00 and over 7.52, respectively.

For the molecule `O=C(Nc1cnc(N2CC(F)(F)C2)nc1)c1ccc2c(c1)-c1cncn1CCO2` [Compound 99A, N-(2-(3,3-Difluoroazetidin-1-yl)pyrimidin-5-yl)-5,6-dihydrobenzo[f]imidazo[1,5-d][1,4]oxazepine-10-carboxamide], the negative-log IC50 (pIC50) in assay [1] was 7.00 to 8.00; in assay [2], over 7.52.

For the molecule `O=C(Nc1cnc(NCC(F)(F)F)nc1)c1ccc2c(c1)-c1cncn1CCO2` [Compound 100A, N-(2-((2,2,2-Trifluoroethyl)amino)pyrimidin-5-yl)-5,6-dihydrobenzo[f]imidazo[1,5-d][1,4]oxazepine-10-carboxamide], the pIC50 in assay [1] is 8.00 to 9.00; in assay [2], over 7.52.

Consider `CN1CCOc2ncc(NC(=O)c3ccc4c(c3)-c3cncn3CCO4)cc21` [Compound 101A, N-(1-Methyl-2,3-dihydro-1H-pyrido[2,3-b][1,4]oxazin-7-yl)-5,6-dihydrobenzo[f]imidazo[1,5-d][1,4]oxazepine-10-carboxamide], for which the pIC50 in assay [1] is over 9.00; in assay [2] it was over 7.52.

In the case of `O=C(Nc1cnc(OCCCF)nc1)c1ccc2c(c1)-c1cncn1CCO2` [Compound 102A, N-(2-(3-Fluoropropoxy)pyrimidin-5-yl)-5,6-dihydrobenzo[f]imidazo[1,5-d][1,4]oxazepine-10-carboxamide], the pIC50 in assay [1] is 8.00 to 9.00; in assay [2], over 7.52.

Take `O=C(Nc1cnc(OCCC(F)F)nc1)c1ccc2c(c1)-c1cncn1CCO2` [Compound 103A, N-(2-(3,3-Difluoropropoxy)pyrimidin-5-yl)-5,6-dihydrobenzo[f]imidazo[1,5-d][1,4]oxazepine-10-carboxamide]: the negative-log IC50 (pIC50) in assay [1] is 8.00 to 9.00; in assay [2] it was over 7.52.

Take `O=C(Nc1cnc(OCCC(F)(F)F)nc1)c1ccc2c(c1)-c1cncn1CCO2` [Compound 104A, N-(2-(3,3,3-Trifluoropropoxy)pyrimidin-5-yl)-5,6-dihydrobenzo[f]imidazo[1,5-d][1,4]oxazepine-10-carboxamide]: the values for the pIC50 in assay [1] and in assay [2] were 8.00 to 9.00 and over 7.52, respectively.

With `O=C(N[C@H]1CC[C@H](CN2CC(F)(F)C2)CC1)c1ccc2c(c1)-c1cncn1CCO2` [Compound 105A, N-((1r,4r)-4-((3,3-Difluoroazetidin-1-yl)methyl)cyclohexyl)-5,6-dihydrobenzo[f]imidazo[1,5-d][1,4]oxazepine-10-carboxamide], the pIC50 was 8.00 to 9.00 in assay [1] and 7.00 to 7.52 in assay [2].

On to `CS(=O)(=O)CCN[C@H]1CC[C@H](NC(=O)c2ccc3c(c2)-c2cncn2CCO3)CC1` [Compound 106A, N-((1r,4r)-4-((2-(Methylsulfonyl)ethyl)amino)cyclohexyl)-5,6-dihydrobenzo[f]imidazo[1,5-d][1,4]oxazepine-10-carboxamide], for which the figures for the pIC50 in assay [1] and in assay [2] were 8.00 to 9.00 and 7.00 to 7.52, respectively.

For the molecule `O=C(N[C@H]1CC[C@H](N2CC(C(F)(F)F)C2)CC1)c1ccc2c(c1)-c1cncn1CCO2` [Compound 107A, N-((1r,4r)-4-(3-(Trifluoromethyl)azetidin-1-yl)cyclohexyl)-5,6-dihydrobenzo[f]imidazo[1,5-d][1,4]oxazepine-10-carboxamide], the pIC50 in assay [1] is 8.00 to 9.00; in assay [2] it was 7.00 to 7.52.

Take `O=C(N[C@@H]1CCC(F)(F)C1)c1cc(F)c2c(c1)-c1cncn1CCO2` [Compound 108A, (R)—N-(3,3-Difluorocyclopentyl)-8-fluoro-5,6-dihydrobenzo[f]imidazo[1,5-d][1,4]oxazepine-10-carboxamide]: the values for the pIC50 in assay [1] and in assay [2] were over 9.00 and over 7.52, respectively.

As for `O=C(Nc1cnc(OCC(F)(F)F)nc1)c1ccc2c(c1)-c1cncn1CCO2` [Compound 109A, N-(2-(2,2,2-Trifluoroethoxy)pyrimidin-5-yl)-5,6-dihydrobenzo[f]imidazo[1,5-d][1,4]oxazepine-10-carboxamide], the pIC50 in assay [1] was 8.00 to 9.00; in assay [2], over 7.52.

Turning to `O=C(N[C@H]1CC[C@H](NCCC(F)(F)F)CC1)c1ccc2c(c1)-c1cncn1CCO2` [Compound 110A, N-((1r,4r)-4-((3,3,3-Trifluoropropyl)amino)cyclohexyl)-5,6-dihydrobenzo[f]imidazo[1,5-d][1,4]oxazepine-10-carboxamide], the negative logarithm of the IC50 (pIC50) is 8.00 to 9.00 in assay [1] and 7.00 to 7.52 in assay [2].

As for `O=C(N[C@H]1CC[C@@H](NCCC(F)(F)F)CC1)c1ccc2c(c1)-c1cncn1CCO2` [Compound 111A, N-((1s,4s)-4-((3,3,3-Trifluoropropyl)amino)cyclohexyl)-5,6-dihydrobenzo[f]imidazo[1,5-d][1,4]oxazepine-10-carboxamide], the negative-log IC50 (pIC50) in assay [1] is under 7.00; in assay [2], 6.00 to 7.00.

In the case of `O=C(N[C@@H]1CCC(F)(F)C1)c1cc(Cl)c2c(c1)-c1cncn1CCO2` [Compound 112A, (R)-8-Chloro-N-(3,3-difluorocyclopentyl)-5,6-dihydrobenzo[f]imidazo[1,5-d][1,4]oxazepine-10-carboxamide], the figures for the pIC50 in assay [1] and in assay [2] were over 9.00 and over 7.52, respectively.

`O=C(N[C@H]1CC[C@H](N2CC(C(F)F)C2)CC1)c1ccc2c(c1)-c1cncn1CCO2` [Compound 113A, N-((1r,4r)-4-(3-(Difluoromethyl)azetidin-1-yl)cyclohexyl)-5,6-dihydrobenzo[f]imidazo[1,5-d][1,4]oxazepine-10-carboxamide]: the values for the pIC50 in assay [1] and in assay [2] were 8.00 to 9.00 and over 7.52, respectively.

Turning to `CC(C)(O)[C@H]1CC[C@H](NC(=O)c2cc(F)c3c(c2)-c2cncn2CCO3)CC1` [Compound 114A, 8-Fluoro-N-((1r,4r)-4-(2-hydroxypropan-2-yl)cyclohexyl)-5,6-dihydrobenzo[f]imidazo[1,5-d][1,4]oxazepine-10-carboxamide], the pIC50 in assay [1] is over 9.00; in assay [2], over 7.52.

Regarding `O=C(N[C@H]1CC[C@H](NCC(F)(F)F)CC1)c1cc(F)c2c(c1)-c1cncn1CCO2` [Compound 115A, 8-Fluoro-N-((1r,4r)-4-((2,2,2-trifluoroethyl)amino)cyclohexyl)-5,6-dihydrobenzo[f]imidazo[1,5-d][1,4]oxazepine-10-carboxamide], the figures for the negative-log IC50 (pIC50) in assay [1] and in assay [2] were over 9.00 and over 7.52, respectively.

In the case of `O=C(N[C@@H]1CCCC(F)(F)C1)c1ccc2c(c1)-c1cncn1CCO2` [Compound 116A, (R)—N-(3,3-Difluorocyclohexyl)-5,6-dihydrobenzo[f]imidazo[1,5-d][1,4]oxazepine-10-carboxamide], the negative logarithm of the IC50 (pIC50) in assay [1] is over 9.00; in assay [2], over 7.52.

Take `O=C(N[C@H]1CCCC(F)(F)C1)c1ccc2c(c1)-c1cncn1CCO2` [Compound 117A, (S)—N-(3,3-Difluorocyclohexyl)-5,6-dihydrobenzo[f]imidazo[1,5-d][1,4]oxazepine-10-carboxamide]: the pIC50 in assay [1] was 8.00 to 9.00; in assay [2] it was 7.00 to 7.52.

On to `O=C(N[C@H]1CC[C@@H](OCC2(C(F)(F)F)CC2)CC1)c1ccc2c(c1)-c1cncn1CCO2` [Compound 118A, N-((1s,4s)-4-((1-(Trifluoromethyl)cyclopropyl)methoxy)cyclohexyl)-5,6-dihydrobenzo[f]imidazo[1,5-d][1,4]oxazepine-10-carboxamide], for which the results for the pIC50 in assay [1] and in assay [2] were under 7.00 and under 6.00, respectively.

The record behind these values is US20260138990A1, “TRICYCLIC FUSED IMIDAZOLE COMPOUNDS AS CD38 MODULATORS AND USES THEREOF” (AEOVIAN PHARMACEUTICALS, INC., priority 2023, published 2026).
